In general, melting point refers to the temperature, or range, at which the solid turns liquid.

The compound `Cc1cc(C(=O)CCl)c(C)s1` yielded a melting point of 53 to 57 °C. With `COc1ccc(-c2ccc(C(=O)O)c(F)c2)cc1`, the melting point was in the range of 201 to 203 °C.

`CCOC(=O)C(=O)c1csc(N)n1` yielded a melting point of 78 to 80 °C. For the compound `CC(C)(C)OC(=O)N1CCC(NCC(F)(F)F)CC1`, the melting point lay in the range of 51 to 53 °C. Then `O=C(O)CCCCN1CCOCC1`, with 99 to 101 °C. The result for `Cc1cnn(CC(=O)O)c1` reads 172 to 174 °C; that for `CCC(=O)Nc1ccc(C#N)cc1`, 174 to 176 °C; that for `CC(C)(C)C(=O)N1CCNCC1`, 52 to 54 °C. Compound `Cc1ccc(-c2csc(=O)[nH]2)cc1` gave a melting point of 219 to 221 °C.

On to `Clc1ccc2c(Cl)ncnc2c1`, for which the melting point lay in the range of 136 to 138 °C. Then `COc1ccc(C(=O)O)cc1S(=O)(=O)NC(C)(C)C`, with 218 to 220 °C; and `Nc1cc(F)c(OC2CCCCC2)cc1C(=O)O`, with 159 to 161 °C.

With `C=C(C#N)C(O)c1ccc([N+](=O)[O-])cc1` (stereo not drawn), the melting point fell in the range of 64 to 66 °C. Then `O=C(NC1CC1)c1cc(Cl)nc2ccccc12`, with 190 to 193 °C. The result for `COc1cc2ncc(C(=O)O)c(O)c2cc1OC` reads 293 to 295 °C. Then `Clc1ccc(N2CCCC2)nn1`, with 115 to 116 °C; and `O=c1cc2c(n[nH]1)CCOC2`, with 218 to 220 °C.

The compound `Cc1ccnn1-c1ccccn1` had a melting point of 34 to 36 °C. The result for `O=C(O)CNC(=O)c1ccc2ccccc2c1` reads 171 to 175 °C. The result for `Cc1ccc(C(N)=O)c(O)c1` reads 181 to 183 °C. Then `CC(C)(NC(=O)c1ccccc1)C(N)=S`, with 165 to 167 °C; and `CCN1CCc2nc3ccccc3c(C(=O)O)c2C1`, with 278 to 280 °C. Compound `COc1ccc(N2CCN(C(=O)CCCl)CC2)cc1` had a melting point of 73 to 75 °C.

As for `CC1(C(=O)O)CCc2ccccc2C1` (stereo not drawn), the melting point lay in the range of 105 to 107 °C. Then `CCc1ccc(C(=O)N2CCC(C(=O)O)CC2)o1`, with 112 to 114 °C; and `CC(Cl)C(=O)NCc1ccc(F)cc1` (stereo not drawn), with 90 to 92 °C; and `O=C(O)CCN1C(=O)C2C3CCC(O3)C2C1=O` (stereo not drawn), with 185 to 187 °C. The result for `CC(C)(C)OC(=O)Nc1ccc(C=O)cn1` reads 169 to 171 °C; that for `Cc1cc(C(=O)O)cc(S(=O)(=O)N2CCC(C)CC2)c1C`, 176 to 178 °C. The result for `O=C(O)CC1(O)CCCC1` reads 72 to 74 °C; that for `O=C(O)c1c(C2CC2)nc2sccn12`, 163 to 165 °C; that for `CCCN1C(=O)CC(=O)NC1=S`, 127 to 129 °C. As for `O=C(O)CSCc1ccc(F)cc1`, the melting point lay within 71 to 73 °C.

`O=C1CC(C(F)(F)F)NCCN1` (stereo not drawn) registered a melting point of 136 to 138 °C. As for `CCOC(=O)c1c(-c2ccccc2)csc1N=CN(C)C`, the melting point lay within 95 to 97 °C. The result for `CS(=O)(=O)c1ccc(OCCCC(=O)O)cc1` reads 150 to 152 °C; that for `c1cc(-c2ncc[nH]2)ccn1`, 208 to 210 °C. Then `O=C1Nc2ccccc2C1O` (stereo not drawn), with 161 to 163 °C; and `COC(=O)c1c[nH]c2ncccc12`, with 208 to 210 °C; and `Cc1ccc2c(Cl)c(C(=O)O)sc2c1`, with 271 to 273 °C. The result for `O=C(O)CCNS(=O)(=O)c1ccccc1` reads 110 to 114 °C.

Regarding `O=C(O)CCCn1ccc2cc(Cl)ccc21`, the melting point is 79 to 81 °C.

For the compound `O=C(O)c1cc([N+](=O)[O-])c(F)cc1I`, the melting point lay in the range of 158 to 160 °C.

The compound `CC(O)Cc1cc(F)cc(Br)c1` (stereo not drawn) gave a melting point of 39 to 41 °C.

The compound `CC(C)(C)c1nc(CC(=O)O)cs1` had a melting point of 94 to 96 °C. Then `Cc1oc(-n2cccc2)c(C#N)c1C(=O)O`, with 208 to 210 °C; and `Cc1[nH]cnc1CC#N`, with 164 to 166 °C.

In turn, `Cc1nn(C)c2nc(C3CC3)cc(C(=O)O)c12` came in with a melting point of 242 to 244 °C. The result for `COc1ccc(OC)c(S(=O)(=O)N2CCNCC2)c1` reads 103 to 105 °C; that for `NCc1cccc(NC(=O)c2ccccn2)c1`, 74 to 76 °C. Then `CC(c1ccncc1)n1nccc1N` (stereo not drawn), with 279 to 281 °C. Then `O=C(O)CCn1nnc2ccccc2c1=O`, with 195 to 197 °C. In turn, `O=C(O)CNC(=O)c1cccc(OCc2ccccc2)c1` registered a melting point of 185 to 187 °C. `COC(=O)c1cn(CC(=O)O)nn1` showed a melting point of 176 to 178 °C.

With `O=C(O)C1(Cc2cccc(Cl)c2)CCCC1`, the melting point is 60 to 62 °C.

`O=C(O)c1cnc2ccccc2c1SC1CCCC1` had a melting point of 111 to 113 °C. Then `CC(=O)N(CCc1ccccc1)CC(=O)O`, with 149 to 151 °C; and `CC(C)(C)NS(=O)(=O)c1cc(N)ccc1F`, with 138 to 140 °C; and `COC(=O)C1CN(CC#N)CCO1` (stereo not drawn), with 79 to 81 °C. Then `CC(=O)c1nc2cc(Cl)ccc2n1C`, with 96 to 98 °C. `CC1(C(=O)O)CCCN1C(=O)c1ccccc1` (stereo not drawn) had a melting point of 205 to 207 °C. The result for `COc1ccc(C=O)cc1OC(F)F` reads 34 to 38 °C; that for `Oc1cc2c(nn1)CCNC2`, 211 to 213 °C. Compound `CC(=O)c1csc(N)n1` came in with a melting point of 165 to 177 °C. The result for `O=Cc1ccccc1OCc1ccncc1` reads 65 to 67 °C; that for `O=C(CCl)N(Cc1ccc(Cl)cc1)C12CC3CC(CC(C3)C1)C2`, 112 to 114 °C; that for `CC(=O)Nc1cc(C)nn1CCC#N`, 159 to 161 °C.

Take `Cc1cc(F)c(C(=O)CCl)cc1F`: the melting point was in the range of 93 to 95 °C. Then `Cc1occc1-c1cc(N)n(CCO)n1`, with 128 to 130 °C; and `CC(=O)N1CCc2cc(NC(=O)CCl)ccc21`, with 233 to 235 °C. In turn, `NC(Cn1cncn1)c1ccccc1` (stereo not drawn) displayed a melting point of 87 to 89 °C.

Compound `Nc1ccc(C(=O)O)nc1Br` showed a melting point of 206 to 208 °C. Then `NC(=O)C1CCCN(Cc2ccccc2N)C1` (stereo not drawn), with 133 to 135 °C; and `NS(=O)(=O)c1cccnc1`, with 109 to 111 °C. With `CC(=O)NCCOc1ccc(N)cc1`, the melting point fell in the range of 92 to 94 °C. Regarding `Nn1c(S)nnc1SCc1ccccc1`, the melting point lay within 157 to 159 °C. `O=[N+]([O-])c1ccc(N2CCC(CO)CC2)nc1` came in with a melting point of 123 to 125 °C. The result for `NC(=O)C1CCN(CC(=O)c2ccc(Cl)cc2)CC1` reads 164 to 166 °C; that for `CC(C)CC(=O)N1Cc2ccccc2CC1C(=O)O` (stereo not drawn), 169 to 171 °C.

The compound `CC(O)C(NC(=O)C(C)(C)C)C(=O)O` (stereo not drawn) registered a melting point of 156 to 158 °C.

Take `NNC(=O)c1cc(-c2ccccc2)on1`: the melting point lay in the range of 125 to 127 °C. `O=C(CCl)c1ccc(C2CCCCC2)cc1` displayed a melting point of 182 to 187 °C. The compound `CC(C)(C)C(O)CN` (stereo not drawn) came in with a melting point of 64 to 66 °C.

For `O=c1[nH]c2cc(Cl)ccc2c(=O)o1`, the melting point lay within 250 to 252 °C. The result for `O=C(O)c1ccc(F)c(COCc2ccccc2)c1` reads 95 to 97 °C; that for `Cc1cc(O)ccc1C(C)C`, 111 to 114 °C.

For `O=C(O)CC1OCCc2ccccc21` (stereo not drawn), the melting point fell in the range of 74 to 76 °C. With `Clc1ccc2[nH]c3c(c2c1)CNCC3`, the melting point lay within 226 to 228 °C. Then `COC(=O)Nc1ccc(Br)cc1`, with 122 to 124 °C. As to `O=C(O)/C=C/c1ccc(N2CCCS2(=O)=O)cc1`, the melting point is 252 to 254 °C. As for `Cc1cccc(CNCc2cccc(C)n2)n1`, the melting point fell in the range of 44 to 46 °C. For `COc1cc(OC)c(S(=O)(=O)Cl)cc1S(=O)(=O)Cl`, the melting point lay in the range of 139 to 141 °C. For the compound `O=C(O)C(NCc1ccccc1)c1ccc(C(F)(F)F)cc1` (stereo not drawn), the melting point was 230 to 232 °C. With `NC(CCN1CCOCC1)=NO`, the melting point was 159 to 161 °C.

`CC(C)Oc1ccc(CCCO)cc1` showed a melting point of 31 to 33 °C. The result for `NC(CN1CCC(O)CC1)=NO` reads 182 to 184 °C; that for `Nc1cccc(C(=O)N2CCC(CO)CC2)c1`, 155 to 157 °C; that for `CC(=O)Oc1ccc2ccc(O)cc2c1`, 157 to 159 °C.

On to `Cc1cc(F)cc2[nH]c(C(=O)O)cc12`, for which the melting point lay within 261 to 263 °C. The result for `CN1CCN(c2ccc(F)cc2N)CC1` reads 126 to 128 °C.

Consider `ClCc1csc(-c2ccc3c(c2)OCO3)n1`, for which the melting point is 106 to 108 °C.

`Nc1cc(C2CCNCC2)n[nH]1` yielded a melting point of 151 to 153 °C. The result for `ON=Cc1cnc2ccccn12` reads 183 to 185 °C; that for `CN(C)S(=O)(=O)c1ccc(/C=C/C(=O)O)cc1`, 268 to 270 °C; that for `CCc1ccc2c(c1)C(=O)C(=O)N2C`, 96 to 98 °C. Regarding `CCOC(=O)c1cc(-c2ccccc2)sc1N`, the melting point fell in the range of 118 to 120 °C. The compound `CN(C1CCCCC1)S(=O)(=O)c1cccc(C(=O)O)c1` registered a melting point of 145 to 147 °C. `CC1CNCCC1NC(=O)OC(C)(C)C` (stereo not drawn) had a melting point of 104 to 106 °C. In turn, `OC1CCOc2ccc(Br)cc21` (stereo not drawn) yielded a melting point of 91 to 93 °C. `O=C(O)CCNS(=O)(=O)c1ccc([N+](=O)[O-])cc1` showed a melting point of 150 to 152 °C. The result for `O=C(O)CCCSc1ccccc1` reads 66 to 68 °C. Then `CC(N)c1ccccc1NS(=O)(=O)c1cccs1` (stereo not drawn), with 167 to 169 °C.

For the compound `Cc1c(C(=O)CBr)oc2ccccc12`, the melting point is 110 to 112 °C. As to `NC(=O)CCN(C(=O)CCl)c1ccccc1`, the melting point fell in the range of 143 to 145 °C. The compound `COc1ccc(C2CNC(=O)C2)cc1` (stereo not drawn) displayed a melting point of 126 to 128 °C. The result for `COc1ccc(-c2nn(CCC#N)cc2C(=O)O)cc1[N+](=O)[O-]` reads 190 to 192 °C.

`CC(C(=O)O)=C1CCCC1` yielded a melting point of 107 to 109 °C.

Take `O=C(O)C1CSc2ccccc21` (stereo not drawn): the melting point lay within 95 to 97 °C. `O=C(O)c1ccccc1Cc1nc2ccccc2c(=O)[nH]1` gave a melting point of 283 to 285 °C. Then `COc1ccc(O)c(C(=O)c2ccccc2)c1`, with 81 to 83 °C; and `Nc1oncc1-c1ccccc1`, with 97 to 99 °C; and `O=C(Nc1ccc(Br)cc1)c1cccnc1Cl`, with 150 to 152 °C.

Take `COc1cc(C#N)cc(Cl)c1OC(C)C`: the melting point lay within 84 to 86 °C.

The record behind these values is a melting point compilation (Tetko et al.).
